Results reported in patent US20110165173A1, “THERAPEUTIC AGENT AND DETECTION REAGENT FOR ARTERIOSCLEROTIC DISEASE WHICH TARGETS FOR SALUSIN” (PROTEINEXPRESS CO., LTD., priority 2007, published 2011).

Assays:
[1] = system: ACAT-1 protein expression; assay: ACAT-1 protein expression in cultured human monocyte-derived macrophages after differentiation (Western blotting); type: cell-based; conditions: cultured 3 more days
Protocol: For ACAT-1 protein detection, an anti-human ACAT-1 polyclonal antibody (DM10 donated from Dr. Chang, Dartmouth Medical School) [Chang CCY et al., J Biol Chem. 1995; 270: 29532-29540] prepared by immunizing a rabbit was used as a primary antibody (final concentration: 0.5 μg/mL) for a reaction on a transfer membrane at room temperature for 1 hour. The transfer membrane was washed with PBS-0.1% Tween 20, followed by a reaction with a secondary antibody (anti-rabbit IgG antibody: anti-rabbit IgG donkey antibody conjugated with horseradish peroxidase (HRP) (GE Healthcare Bio-Science)) at room temperature for 1 hour. For a secondary antibody, a stock solution (0.5 μL) was diluted 10,000-fold with PBS-0.1% Tween 20 (5 mL), and the resultant was used. Washing was carried out with PBS-0.1% Tween 20, followed by ACAT-1 protein detection with the use of Lumi-Light Plus (PerkinElmer Life Sciences).
In each of the experiments in Examples 1 to 6, salusin-α and salusin-β were added in the phase of differentiation of cultured human monocytes into macrophages and cells obtained on Day 7 of culture were used to examine the effects of salusin-α and salusin-13. In this Example, it was examined whether salusin-α and salusin-β would have similar effects on ACAT-1 protein expression in macrophages obtained after differentiation. […]

[2] = system: macrophages of apoE-deficient mice; assay: Foaming (oxidized LDL-induced cholesterol ester accumulation) of macrophages collected from treated apoE-deficient mice; type: in vivo; conditions: 0.6 nmol/kg/h, four weeks
Protocol: 13-week-old male apoE-deficient mice (72 mice) were divided into the following 6 groups: (i) physiological salt saline (control); (ii) salusin-α (0.6 nmol/kg/h); (iii) salusin-β (0.6 nmol/kg/h); (iv) salusin-α (0.6 nmol/kg/h)+anti-salusin-α serum (1.4 μg/kg/h); (v) salusin-β (0.6 nmol/kg/h)+anti-salusin-β serum (1.4 μg/kg/h); and (vi) anti-salusin-β serum (1.4 μg/kg/h). The mice were subjected to continuous subcutaneous administration with the use of an osmotic mini-pump for 4 to 8 weeks. The osmotic mini-pump and the solution contained therein were changed every week.
On Day 4 after intraperitoneal administration of thioglycollate, transudatory macrophages were collected and cultured with an RPMI1640 solution containing 10% bovine fetal serum. Oxidized LDL (10 μg/mL) and [^3H] oleic acid (0.1 mM) were added to the culture solution. After 13 hours, the radioactivity of intracellularly accumulated cholesterol [^3H] oleic acid was assayed for evaluation of foaming of macrophages.

[3] = target: T1, mouse mas-like G protein-coupled receptor Al (mMrgA 1) (Mus musculus, UniProt Q91WW5); conditions: HEK293T cells expressing mMrgA1; Wang Z et al., Eur J Pharmacol. 2006; cited from earlier work
T1 construct: host or cells: HEK293T cells (heterologous expression, reported by Wang et al., Eur J Pharmacol 2006)
T1 sequence (Q91WW5 1-304): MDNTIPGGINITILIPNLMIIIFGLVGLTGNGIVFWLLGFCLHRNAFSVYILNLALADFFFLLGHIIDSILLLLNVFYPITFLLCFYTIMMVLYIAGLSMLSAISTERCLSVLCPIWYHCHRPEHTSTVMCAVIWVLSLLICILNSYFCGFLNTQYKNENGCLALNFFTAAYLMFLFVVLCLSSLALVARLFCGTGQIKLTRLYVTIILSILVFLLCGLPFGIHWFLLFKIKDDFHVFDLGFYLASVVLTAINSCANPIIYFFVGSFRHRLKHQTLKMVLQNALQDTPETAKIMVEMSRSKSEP

| Substance | ACAT-1 protein expression level, percent of that of the control ([1]; 1.0 nM added on Day 7 after differentiation) [%] | foaming of macrophages due to oxidized LDL (intracellular cholesterol ester accumulation), fraction of control ([2]; P<0.05) | ligand for mMrgA1 [3] | ACAT-1 protein expression level relative to control ([1]; 0.6 nM added on Day 7 after differentiation) [times] | foaming of macrophages due to oxidized LDL relative to control ([2]; P<0.01) |
| --- | --- | --- | --- | --- | --- |
| salusin-α: peptide (SEQ ID NO: 1) comprising 28 amino acid residues, generated by processing from preprosalusin (SGALPPAPAAPRPALRAQRAGPAGPGAK; listed as Homo sapiens) | 60 | approximately ¼ | does not serve as a ligand | – | – |
| salusin-β: peptide (SEQ ID NO: 3) comprising 20 amino acid residues, generated by processing from preprosalusin (AIFIFIRWLLKLGHHGRAPP; listed as Homo sapiens) [reference compound] | – | – | regarded as a ligand | 2.2 | approximately 2 times |
